Marks after values point to notes of the source that are not given here.
What was measured:
ζ-opioid receptor [1] = target: T1, ζ-opioid receptor (Homo sapiens, UniProt Q9NZT2); assay: [3H]-[Met5]-enkephalin binding of HT-29 tumor homogenates from nude mice treated with 0.1 mg/kg NTX; design: from tissue; host or cells: HT-29 human colon tumor xenografts grown in athymic nude mice; nuclear (P1) and other subcellular fractions
T1 sequence (Q9NZT2 1-677): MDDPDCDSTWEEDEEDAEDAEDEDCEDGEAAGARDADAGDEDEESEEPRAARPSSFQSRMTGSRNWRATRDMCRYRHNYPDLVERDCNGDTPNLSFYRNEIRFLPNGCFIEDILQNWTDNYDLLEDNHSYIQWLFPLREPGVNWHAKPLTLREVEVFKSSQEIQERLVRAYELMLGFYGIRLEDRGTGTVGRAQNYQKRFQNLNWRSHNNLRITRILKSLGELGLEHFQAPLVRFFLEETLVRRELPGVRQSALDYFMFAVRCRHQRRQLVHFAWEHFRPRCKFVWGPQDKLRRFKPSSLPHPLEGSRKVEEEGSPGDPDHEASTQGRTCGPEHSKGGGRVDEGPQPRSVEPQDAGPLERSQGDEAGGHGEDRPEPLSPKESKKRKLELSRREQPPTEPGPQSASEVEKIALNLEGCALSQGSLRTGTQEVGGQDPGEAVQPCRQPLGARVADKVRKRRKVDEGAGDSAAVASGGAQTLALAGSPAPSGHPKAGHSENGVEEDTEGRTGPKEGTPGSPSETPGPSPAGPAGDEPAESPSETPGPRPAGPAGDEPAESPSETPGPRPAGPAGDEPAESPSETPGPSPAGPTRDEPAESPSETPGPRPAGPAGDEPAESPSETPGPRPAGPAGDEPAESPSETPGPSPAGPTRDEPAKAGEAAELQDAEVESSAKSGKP
Experimental: Endogenous opioid systems regulate growth of neural tumor cells in culture. Brain Res. 490:1313-1318 (1988)].
Receptor binding data were analyzed with a Lundon (Saturation Isotherm Binding Analysis) computer program (Lundon Software, Cleveland, Ohio). This analysis utilizes non-linear least squares regression. Saturation curves and Scatchard plots were computed and plotted directly by this program.

ζ-opioid receptor [2] = target: T1, ζ-opioid receptor; assay: Competition for binding of [3H][Met5]enkephalin (4.0 nM) in nuclear homogenates of HT-29 human colon tumors; design: from tissue; host or cells: HT-29 human colon tumor xenografts grown in athymic nude mice; nuclear (P1) and other subcellular fractions
[3] = test system: HT-29 human colon cancer cells; assay: HT-29 human colon tumor xenografts in nude mice treated with 0.1 mg/kg naltrexone; format: in vivo
Experimental: HT-29 human colon cancer cells, purchased from the American Type Culture Collection (Rockville, Md.), were grown in McCoy's 5A Modified Medium containing 10% fetal calf serum, L-glutamine (2 mM), penicillin (10 units/ml), and streptomycin ([…]) in an atmosphere of 7% CO2 at 37° C. Cell viability was determined by the trypan blue exclusion test. Five- to six-week-old male athymic nude mice, obtained from the National Cancer Institute (Frederick, Md.), were injected subcutaneously over the right shoulder with 1×10^6 log phase HT-29 cells in a 0.5 ml suspension of McCoy's media. The day of tumor cell inoculation was considered day 0. The mice were evaluated daily and the date that the tumor became palpable was recorded. The time of “initial” appearance of a tumor was considered to be the day when tumor volume was 5 mm^3 or larger. Individual tumors were measured with vernier calipers every 2 days. Measurements of the two largest perpendicular dimensions were recorded and tumors volume was calculated using the formula: length×(width)^2×0.5 [Osieka, R., D. P. Houchens, and A. Goldin. Chemotherapy of human colon cancer xenografts in athymic nude mice. Cancer 40:2640-2650, (1977)]. All mice were euthanized and necropsied 50 days after tumor cell inoculation. Tumor tissue for receptor binding assays and radioimmunoassays was rapidly frozen in liquid nitrogen and stored at −70° C. until assayed.
Treatment was initiated on the day of tumor cell inoculation. […] Animals were weighed-weekly and appropriate dosage adjustments made.
Latencies until tumor appearance were analyzed using one-way analysis of variance; subsequent comparisons were made with the Newman-Keuls test. The number of mice developing tumors was expressed as a ratio of the total number of mice in the group. Comparisons between groups were made with chi-square tests.
The growth of tumors was compared for each mouse beginning on the day of initial tumor appearance and every 3 days thereafter until the termination of the experiment. Tumor measurements on these days were analyzed using one-way analysis of variance and Newman-Keuls test. Body weights were compared with a two-factor analysis of variance.

HT-29 cells = assay: Growth assay (cell counts) of HT-29 human colon cancer cells in culture; format: cell-based
Experimental: In some examples, cultures of HT-29 cells were maintained in McCoy's 5A media without fetal calf serum.
(§1) Cells were seeded at equivalent amounts into 75 cm^2 flasks or into 9.6 cm^2 wells (6-well plates, Falcon) and were counted 24 hr later to determine plating efficiency. Drugs or sterile water were added beginning 24 hr after seeding (=0 hours) and both media and drugs were changed daily. All drugs were prepared in sterile water and dilutions represent final concentrations of the compounds. At appropriate times, cells were harvested with 0.05% trypsin/0.53 mM EDTA, centrifuged, and counted with a hemacytometer at 200×. Cell viability was determined by trypan blue staining. At least 2 aliquots/flask or well were counted and 2 flasks or wells/time point/treatment group were sampled.

WiDr cells = assay: Growth assay (cell counts) of WiDr human colon cancer cells; format: cell-based; settings: 10^−6 M NTX, 48 hr
Experimental: (§2) HT-29, WiDr, and COLO 205 cell lines were obtained from the American Type Culture Collection (Rockville, Md.). HT-29 cells were grown in McCoy's 5A media (modified), WiDr cells in Minimum Essential Media, and COLO 205 cells in RPMI 1640 media; all media contained 10% fetal calf serum, 2 mM […], 1.2% sodium bicarbonate and antibiotics (11 Units/ml penicillin, 10 μg/ml streptomycin, 10 μg/ml neomycin) in a humidified atmosphere of 7% CO2/93% air at 37° C. In some examples, cultures of HT-29 cells were maintained in McCoy's 5A media without fetal calf serum.
as §1
(§3) To examine the ubiquity of opioid activity with respect to colon cancer, two other colon cancer cell lines were investigated: COLO 205 and WiDr.

COLO 205 cells = assay: Growth assay (cell counts) of COLO 205 human colon cancer cells; format: cell-based; settings: 10^−6 M NTX, 48 hr
Experimental: as §2, §1, §3

neuroblastoma = settings: cited from earlier work

For `O=C1CC[C@@]2(O)[C@H]3Cc4ccc(O)c5c4[C@@]2(CCN3CC2CC2)[C@H]1O5` [naltrexone], the “binding affinity (Kd) versus control levels” value (ζ-opioid receptor [1]; 0.1 mg/kg naltrexone) was “did not differ”, the “binding capacity (Bmax) decreased from control values” (ζ-opioid receptor [1]; 0.1 mg/kg naltrexone) was 6.6 fold and the “Bmax, fmol/mg protein” value (ζ-opioid receptor [1]; tumors from mice treated with 0.1 mg/kg NTX) was 52.9 ± 12.1 fmol/mg protein. The IC50 (ζ-opioid receptor [2]; 4.0 nM [3H][Met5]enkephalin, read-out: IC50) was 90.5 ± 3.5 nM, the Ki (ζ-opioid receptor [2]; calculated from IC50 by Cheng and Prusoff, read-out: KI) was 69.6 ± 2.7 nM and the “Number of mice with tumors 19 days after inoculation” value ([3]; 0.1 mg/kg NTX daily) was 3/10**. For the same compound, the “Number of mice with tumors 36 days after inoculation” value ([3]; 0.1 mg/kg NTX daily) was 6/10*, the “Number of mice with tumors 50 days after inoculation” value ([3]; 0.1 mg/kg NTX daily) was 8/10 and the “Latency (days) for initial tumor appearance” value ([3]; 0.1 mg/kg NTX daily s.c.) was 23.1 ± 2.9 days. For the same compound, the “Latency (days) for initial tumor appearance (Range)” value ([3]; 0.1 mg/kg NTX daily s.c.) was “(14-37) days”, the “Latency (days) for palpable tumor” value ([3]; 0.1 mg/kg NTX daily s.c. from inoculation) was 17.0 ± 2.8 days and the “behavioral differences (e.g. hyperactivity) versus control” value ([3]; 0.1 mg/kg naltrexone) was “no behavioral differences”. The “interval between palpable tumors and initial tumor appearance versus control” value ([3]; 0.1 mg/kg naltrexone) was “similar”, the “mean latency prior to palpable tumor appearance increased compared to control” value ([3]; 0.1 mg/kg naltrexone) was 2.4 fold and the “range in latency until initial tumor appearance greater than control” value ([3]; 0.1 mg/kg naltrexone) was “up to 2 fold”. The “size of tumors after initial tumor appearance versus control” value ([3]; 0.1 mg/kg naltrexone) was “did not differ”, the “body weights versus control animals” value ([3]; 0.1 mg/kg naltrexone, throughout the experiment) was “comparable” and the mice with tumors ([3]; day 36, 0.1 mg/kg) was 60%. For the same compound, the “mice that still did not have tumors” value ([3]; day 50, 0.1 mg/kg) was 20%, the “mice with tumors of 5 mm^3 or larger” value ([3]; nineteen days after inoculation, 0.1 mg/kg) was 30% and the “number of mice with palpable tumors” value ([3]; ten days after tumor cell inoculation, 0.1 mg/kg) was 2. For the same compound, the “effect on cell growth in serum-free media” value (HT-29 cells) was “significant increase in cell number”, the “increase in cell number compared to control cultures” value (HT-29 cells; 10^−6 M NTX, 12 hr) was 38% and the “more cells than control cultures” value (WiDr cells) was 68%. For the same compound, the “more cells than control cultures” value (COLO 205 cells) was 76%, the “duration of opioid receptor blockade” value (neuroblastoma; 0.1 mg/kg single daily injection) was 4-6 h/day and the “course of tumorigenesis and survival” value (neuroblastoma; chronic receptor blockade: 10 mg/kg per day or 0.1 mg/kg 4 times daily) was “accelerated the course of tumorigenesis and shortened survival”. For the same compound, the “tumor effect (e.g. tumor incidence)” value (neuroblastoma; single daily injection of 0.1 mg/kg) was “antitumor effect”.

From patent publication US6737397B1, “Control of cancer growth through the interaction of [MET5]-enkephalin and the zeta receptor” (The Penn State Research Foundation, priority 1996, dated 2004)
